± gives the expanded uncertainty stated by the source.
Tests used:
[1] = 101 kPa, Liquid; for viscosity: Capillary tube (Ostwald / Ubbelohde) method
[2] = xn = mol fraction of the nth substance listed; settings: 101 kPa, Liquid, x2 = 0; for viscosity: Capillary tube (Ostwald / Ubbelohde) method

Compound	mass density ([1]; 303.15 K)	viscosity ([1]; 303.15 K)	mass density ([1]; 313.15 K)	viscosity ([1]; 313.15 K)	mass density ([1]; 323.15 K)	viscosity ([1]; 323.15 K)	mass density ([1]; 333.15 K)	viscosity ([1]; 333.15 K)	mass density ([1]; 343.15 K)	viscosity ([1]; 343.15 K)	mass density ([1]; 353.15 K)	viscosity ([1]; 353.15 K)	viscosity ([2]; 303.15 K)	mass density ([2]; 303.15 K)	viscosity ([2]; 313.15 K)	mass density ([2]; 313.15 K)	viscosity ([2]; 323.15 K)	mass density ([2]; 323.15 K)	viscosity ([2]; 333.15 K)	mass density ([2]; 333.15 K)	also measured
CC(=O)O [acetic acid]	1038.66 ± 0.42 kg/m3	1.059 ± 0.009 mPa·s	1027.37 ± 0.39 kg/m3	0.92 ± 0.009 mPa·s	1016.08 ± 0.35 kg/m3	0.804 ± 0.008 mPa·s	1005.04 ± 0.32 kg/m3	0.709 ± 0.008 mPa·s	993.69 ± 0.32 kg/m3	0.632 ± 0.007 mPa·s	982.95 ± 0.35 kg/m3	0.57 ± 0.007 mPa·s	–	–	–	–	–	–	–	–	–
CN(C)C=O [dimethylformamide]	939.45 ± 0.34 kg/m3	0.76 ± 0.008 mPa·s	929.86 ± 0.36 kg/m3	0.675 ± 0.007 mPa·s	920.92 ± 0.38 kg/m3	0.608 ± 0.007 mPa·s	910.64 ± 0.41 kg/m3	0.552 ± 0.007 mPa·s	901.72 ± 0.43 kg/m3	0.502 ± 0.007 mPa·s	891.44 ± 0.45 kg/m3	0.46 ± 0.007 mPa·s	–	–	–	–	–	–	–	–	–
CN(C)C=O [dimethylformamide] + CC(=O)O	–	–	–	–	–	–	–	–	–	–	–	–	0.76 ± 0.008 mPa·s	939.45 ± 0.45 kg/m3	0.675 ± 0.007 mPa·s	929.86 ± 0.48 kg/m3	0.608 ± 0.007 mPa·s	920.92 ± 0.5 kg/m3	0.552 ± 0.007 mPa·s	910.64 ± 0.54 kg/m3	viscosity ([2]; 343.15 K): 0.502 ± 0.007 mPa·s; mass density ([2]; 343.15 K): 901.72 ± 0.56 kg/m3; viscosity ([2]; 353.15 K): 0.46 ± 0.007 mPa·s; mass density ([2]; 353.15 K): 891.44 ± 0.6 kg/m3
CN(C)C=O [dimethylformamide] + O=CO	–	–	–	–	–	–	–	–	–	–	–	–	0.76 ± 0.008 mPa·s	939.45 ± 0.34 kg/m3	0.675 ± 0.007 mPa·s	929.86 ± 0.36 kg/m3	0.608 ± 0.007 mPa·s	920.92 ± 0.38 kg/m3	0.552 ± 0.007 mPa·s	910.64 ± 0.41 kg/m3	viscosity ([2]; 343.15 K): 0.502 ± 0.007 mPa·s; mass density ([2]; 343.15 K): 901.72 ± 0.43 kg/m3; viscosity ([2]; 353.15 K): 0.46 ± 0.007 mPa·s; mass density ([2]; 353.15 K): 891.44 ± 0.45 kg/m3
O=CO [formic acid]	1205.07 ± 0.96 kg/m3	1.437 ± 0.013 mPa·s	1192.81 ± 0.92 kg/m3	1.205 ± 0.012 mPa·s	1180.63 ± 0.89 kg/m3	1.022 ± 0.01 mPa·s	1167.44 ± 0.85 kg/m3	0.879 ± 0.009 mPa·s	1154.99 ± 0.82 kg/m3	0.766 ± 0.009 mPa·s	1142.08 ± 0.78 kg/m3	0.677 ± 0.008 mPa·s	–	–	–	–	–	–	–	–	–
